Tested on: rat-transient focal cerebral ischemia model
Experiment: Rat-transient focal cerebral ischemia model (middle cerebral artery closure 2 h, TTC staining)
Assay type: in vivo
Conditions: injectable solution, intravenously two times (immediately after and 30 minutes after restoration of blood flow), 3 mg/kg

In the case of CC1=NN(c2ccccc2)C(=O)C1 [3-methyl-1-phenyl-2-pyrazolin-5-one], the “effect on area of cerebral infarction compared with the control group (in words)” value is reported as “almost same as that of the control group”.
